Read-outs that look alike come from different tables or passages of the source.
Assays:
[1] = target: CDK4/cyclin D1 (Homo sapiens (Human), UniProt P11802); test: CDK4/cyclin D1 enzymatic activity assay (TR-FRET, phosphorylation of pRb at Ser780); assay type: biochemical
Outline: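 Phosphorylation at pRb Ser780, detected by TR-FRET, gave IC50s and kinetics. Enzyme: baculovirus/Sf21-expressed human CDK4/cyclin D1. ATP at 3 μM initiated the reaction; EDTA (pH 8.0) stopped it after 60 min at 22° C.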

[2] = tested on: phosphorylation of pRb at the Ser780 site in JeKo-1 mantle cell lymphoma cells; test: CDK4 cellular assay: ELISA of pRb phosphorylation at Ser780 in JeKo-1 cells; assay type: cell-based
[3] = target: CDK1/cyclin B (Homo sapiens (Human), UniProt P06493); test: CDK1/cyclin B enzymatic activity assay (IMAP-FP); assay type: biochemical
Source text: CDK1/Cyclin B Enzymatic Activity Assay
A 384-well microtiter IMAP-FP™ (Molecular Devices Trade Mark Technology) endpoint assay was used for CDK1/cyclin B kinase activity measurements. The same assay was used for IC50 determination of small molecule inhibitors.

[4] = 0.3 nM CDK4/cyclin D1, 150 nM biotin-pRb (773-924), 3 μM ATP, 60 min at 22° C., read-out: Biochemical CDK4 enzyme IC50
[5] = Homo sapiens, JeKo-1, JeKo-1 cells, p-pRb % inhibition adjusted with total pRb levels, read-out: Normalized cellular ppRb inhibition IC50
[6] = Homo sapiens, JeKo-1, JeKo-1 cells, p-pRb Ser780 ELISA, non-normalized, read-out: Cellular ppRb inhibition IC50
[7] = […] CDK1/cyclin B, 100 nM Tamra Histone-H1 peptide, 20 μM ATP, 120 min at room temperature, read-out: Biochemical CDK1 enzyme IC50
[8] = JeKo-1 cells, p-pRb % inhibition adjusted with total pRb levels, read-out: Normalized cellular ppRb inhibition IC50
[9] = JeKo-1 cells, p-pRb Ser780 ELISA, non-normalized, read-out: Cellular ppRb inhibition IC50
[10] = Homo sapiens, JeKo-1 cells, p-pRb % inhibition adjusted with total pRb levels, read-out: Normalized cellular ppRb inhibition IC50
[11] = Homo sapiens, JeKo-1 cells, p-pRb Ser780 ELISA, non-normalized, read-out: Cellular ppRb inhibition IC50

CDK4/cyclin D1, sequence (P11802 whole entry): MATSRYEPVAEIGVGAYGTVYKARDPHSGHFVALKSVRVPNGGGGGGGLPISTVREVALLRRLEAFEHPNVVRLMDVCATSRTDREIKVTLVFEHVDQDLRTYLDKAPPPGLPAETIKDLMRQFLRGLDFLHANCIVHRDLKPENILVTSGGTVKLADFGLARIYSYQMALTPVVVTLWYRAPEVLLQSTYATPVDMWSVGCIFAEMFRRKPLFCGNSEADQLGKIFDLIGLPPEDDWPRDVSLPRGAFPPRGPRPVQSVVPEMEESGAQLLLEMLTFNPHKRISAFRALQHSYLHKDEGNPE
CDK4/cyclin D1, sequence (P24385 whole entry partner): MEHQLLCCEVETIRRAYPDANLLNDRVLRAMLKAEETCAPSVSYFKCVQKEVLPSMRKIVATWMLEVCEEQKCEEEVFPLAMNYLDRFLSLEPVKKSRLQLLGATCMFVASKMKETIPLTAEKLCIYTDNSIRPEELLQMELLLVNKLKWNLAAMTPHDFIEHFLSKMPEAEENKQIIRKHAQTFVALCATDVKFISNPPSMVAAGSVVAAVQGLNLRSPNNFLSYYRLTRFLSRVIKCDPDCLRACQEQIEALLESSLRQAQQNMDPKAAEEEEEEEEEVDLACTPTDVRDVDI
CDK1/cyclin B, sequence (P06493 whole entry, species assumed): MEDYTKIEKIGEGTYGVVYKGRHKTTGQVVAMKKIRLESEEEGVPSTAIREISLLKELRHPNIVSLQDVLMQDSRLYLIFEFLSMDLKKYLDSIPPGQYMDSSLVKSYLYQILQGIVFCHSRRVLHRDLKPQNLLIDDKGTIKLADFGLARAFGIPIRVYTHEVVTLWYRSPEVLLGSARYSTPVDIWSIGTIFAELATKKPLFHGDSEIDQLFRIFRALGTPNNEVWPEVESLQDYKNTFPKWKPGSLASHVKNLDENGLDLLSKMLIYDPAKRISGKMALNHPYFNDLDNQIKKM
CDK1/cyclin B, sequence (P14635 whole entry partner, species assumed): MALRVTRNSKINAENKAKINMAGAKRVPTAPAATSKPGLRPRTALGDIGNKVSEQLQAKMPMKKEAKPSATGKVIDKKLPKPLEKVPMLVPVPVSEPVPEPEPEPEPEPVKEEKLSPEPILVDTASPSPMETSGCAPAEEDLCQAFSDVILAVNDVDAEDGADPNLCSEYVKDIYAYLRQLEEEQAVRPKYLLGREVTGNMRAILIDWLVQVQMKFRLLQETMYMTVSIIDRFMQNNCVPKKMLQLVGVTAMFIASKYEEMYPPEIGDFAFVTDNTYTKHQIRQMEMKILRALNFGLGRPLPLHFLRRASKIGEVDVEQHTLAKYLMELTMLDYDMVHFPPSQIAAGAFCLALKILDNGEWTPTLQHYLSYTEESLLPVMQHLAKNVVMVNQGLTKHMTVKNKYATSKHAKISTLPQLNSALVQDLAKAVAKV

SMILES	IC50 [1, 4] [nM]	IC50 [2, 5] [nM]	IC50 [2, 6] [nM]	IC50 [3, 7] [nM]	further results
CN(C)C(=O)c1cc2cnc(Nc3ccc(C(=O)N4CC5CCC(C4)N5)cn3)nc2n1[C@@H]1C[C@H]2CC[C@@H]1C2 (stereo in doubt) [Example 36, 7-(1R,2R,4S)-Bicyclo[2.2.1]hept-2-yl-2-[5-(3,8-diaza-bicyclo[3.2.1]octane-3-carbonyl)-pyridin-2-ylamino]-7H-pyrrolo[2,3-d]pyrimidine-6-carboxylic acid dimethylamide]	3	28	23	13000	
CN(C)C(=O)c1cc2cnc(Nc3ccc(C(=O)N4CC5CCC(C4)N5)nn3)nc2n1C1CCCC1 [Example 73, 7-Cyclopentyl-2-[6-(3,8-diaza-bicyclo[3.2.1]octane-3-carbonyl)-pyridazin-3-ylamino]-7H-pyrrolo[2,3-d]pyrimidine-6-carboxylic acid dimethylamide]				> 15000	IC50 ([1]; read-out: Biochemical CDK4 enzyme IC50, 0.3 nM CDK4/cyclin D1, 150 nM biotin-pRb (773-924), 3 μM ATP, 60 min at 22° C.): 45 to 84 nM; IC50 [2, 8]: 139 to 783 nM; IC50 [2, 9]: 75 to 259 nM
CN(C)C(=O)c1cc2cnc(Nc3ccc(C(=O)N4C5CCC4CNC5)cn3)nc2n1C1CCCC1 [Example 22, 7-Cyclopentyl-2-[5-(3,8-diaza-bicyclo[3.2.1]octane-8-carbonyl)-pyridin-2-ylamino]-7H-pyrrolo[2,3-d]pyrimidine-6-carboxylic acid dimethylamide]		86 to 817	86 to 513	> 15000	IC50 [1]: 62 to 83 nM
CN(C)C(=O)c1cc2cnc(Nc3ccc(N4CCC5(CCNCC5)C4=O)cn3)nc2n1C1CCCC1 [Example 117, 7-cyclopentyl-N,N-dimethyl-2-(5-(1-oxo-2,8-diazaspiro[4.5]decan-2-yl)pyridin-2-ylamino)-7H-pyrrolo[2,3-d]pyrimidine-6-carboxamide]	7 to 9			> 15000	IC50 [2, 8]: 51 to 82 nM; IC50 [2, 9]: 40 to 67 nM
CN(C)C(=O)c1cc2cnc(Nc3ccc(N4C[C@H]5CC[C@@H](CC4=O)N5)cn3)nc2n1C1CCC1 [Example 136, 7-Cyclobutyl-2-[5-((1R,6S)-4-oxo-3,9-diaza-bicyclo[4.2.1]non-3-yl)-pyridin-2-ylamino]-7H-pyrrolo[2,3-d]pyrimidine-6-carboxylic acid dimethylamide]	54	218	77	> 15000	
CN(C)C(=O)c1cc2cnc(Nc3ccc(N4CCN5CCC[C@@H]5C4=O)cn3)nc2n1C1CCCC1 [Example 147]	27	310	257	> 15000	
CN(C)C(=O)c1cc2cnc(Nc3ccc(N4C[C@]5(CCCNC5)OC4=O)cn3)nc2n1C1CCCC1 [Example 110, 7-Cyclopentyl-2-[5-((R)-2-oxo-1-oxa-3,7-diaza-spiro[4.5]dec-3-yl)-pyridin-2-ylamino]-7H-pyrrolo[2,3-d]pyrimidine-6-carboxylic acid dimethylamide]	8			> 15000	IC50 [2, 10]: 62 nM; IC50 [2, 11]: 41 nM
CN(C)C(=O)c1cc2cnc(Nc3ccc(C(=O)N4CC5C[C@]5(N)C4)cn3)nc2n1C1CCCC1 (single isomer, unassigned) [Example 16]	15	233	92		IC50 ([3]; 0.25 nM CDK1/cyclin B, 100 nM Tamra Histone-H1 peptide, 20 μM ATP, 120 min at room temperature, read-out: Biochemical CDK1 enzyme IC50): > 15000 nM
CN(C)C(=O)c1cc2cnc(Nc3ccc(N4C[C@@H]5CNC[C@@H]5CC4=O)cn3)nc2n1C1CCCCCC1 (stereo in doubt) [Example 89, 7-cycloheptyl-N,N-dimethyl-2-(5-(cis-6-oxotetrahydro-1H-pyrrolo[3,4-c]pyridin-5(6H,7H,7aH)-yl)pyridin-2-ylamino)-7H-pyrrolo[2,3-d]pyrimidine-6-carboxamide]	3	4 to 15	5 to 7	6480	
CNC(=O)c1cc2cnc(Nc3ccc(N4C[C@H]5CC[C@@H](CC4=O)N5C)cn3)nc2n1C1CCCC1 [Example 125, 7-cyclopentyl-2-[5-((1R,6S)-9-methyl-4-oxo-3,9-diaza-bicyclo[4.2.1]non-3-yl)-pyridin-2-ylamino]-7H-pyrrolo[2,3-c]pyrimidine-6-carboxylic acid methylamide]	15			> 15000	IC50 [2, 10]: 161 nM; IC50 [2, 11]: 83 nM
CC(CO)N1C2CCC1CN(C(=O)c1ccc(Nc3ncc4cc(C(=O)N(C)C)n(C5CCCC5)c4n3)nc1)C2 (stereo not shown) [Example 35, 7-cyclopentyl-2-(5-(8-(1-hydroxypropan-2-yl)-3,8-diazabicyclo[3.2.1]octane-3-carbonyl)pyridin-2-ylamino)-N,N-dimethyl-7H-pyrrolo[2,3-d]pyrimidine-6-carboxamide]	26	197	69	> 15000	
CN(C)C(=O)c1cc2cnc(Nc3ccc(N4CC5(CCCNC5)OC4=O)cn3)nc2n1C1CCCC1 (stereo not shown) [Example 107, 7-cyclopentyl-N,N-dimethyl-2-(5-(2-oxo-1-oxa-3,7-diazaspiro[4.5]decan-3-yl)pyridin-2-ylamino)-7H-pyrrolo[2,3-d]pyrimidine-6-carboxamide]	9			> 15000	IC50 [2, 10]: 37 to 114 nM; IC50 [2, 11]: 13 to 49 nM
CC(=O)N1[C@@H]2CC[C@H]1CN(c1ccc(Nc3ncc4cc(C(=O)N(C)C)n(C5CCCC5)c4n3)nc1)C(=O)C2 [Example 139, 2-(5-((1S,6R)-9-acetyl-4-oxo-3,9-diazabicyclo[4.2.1]nonan-3-yl)pyridin-2-ylamino)-7-cyclopentyl-N,N-dimethyl-7H-pyrrolo[2,3-d]pyrimidine-6-carboxamide]	114	638	605	> 15000	
CN(C)C(=O)c1cc2cnc(Nc3ccc(C(=O)N4CC5COCC(C4)N5)cn3)nc2n1C1CCCC1 [Example 70, 7-Cyclopentyl-2-[5-(3-oxa-7,9-diaza-bicyclo[3.3.1]nonane-7-carbonyl)-pyridin-2-ylamino]-7H-pyrrolo[2,3-d]pyrimidine-6-carboxylic acid dimethylamide]	39			> 15000	IC50 [2, 10]: 180 nM; IC50 [2, 11]: 117 nM
CN(C)C(=O)c1cc2cnc(Nc3ccc(C(=O)N4CC5(CNC5)C4)cn3)nc2n1C1CCCC1 [Example 41, 2-(5-(2,6-diazaspiro[3.3]heptane-2-carbonyl)pyridin-2-ylamino)-7-cyclopentyl-N,N-dimethyl-7H-pyrrolo[2,3-d]pyrimidine-6-carboxamide]	15 to 17			> 15000	IC50 [2, 10]: 132 to 415 nM; IC50 [2, 11]: 112 to 228 nM
CN(C)C(=O)c1cc2cnc(Nc3ccc(N4C[C@@H]5CC[C@H](CC4=O)N5)cn3)nc2n1C1CCCCC1 [Example 132, 7-Cyclohexyl-2-[5-((1S,6R)-4-oxo-3,9-diaza-bicyclo[4.2.1]non-3-yl)-pyridin-2-ylamino]-7H-pyrrolo[2,3-d]pyrimidine-6-carboxylic acid dimethylamide]	19	28 to 47	21 to 50	> 15000	
CN(C)C(=O)c1cc2cnc(Nc3ccc(C(=O)N4CC5CCC(C4)N5)cn3)nc2n1-c1ccc(C(C)(C)C)cc1 [Example 53, 7-(4-tert-Butyl-phenyl)-2-[5-(3,8-diaza-bicyclo[3.2.1]octane-3-carbonyl)-pyridin-2-ylamino]-7H-pyrrolo[2,3-d]pyrimidine-6-carboxylic acid dimethylamide]	3	7 to 27	7 to 14	> 15000	
CN(C)C(=O)c1cc2cnc(Nc3ccc(C(=O)N4CC5CCC(C4)N5)cn3)nc2n1C1C[C@H]2CC[C@@H]1C2 (stereo partly drawn) [Example 76, 7-(1R,2R,4S)-Bicyclo[2.2.1]hept-2-yl-2-[5-(3,8-diaza-bicyclo[3.2.1]octane-3-carbonyl)-pyridin-2-ylamino]-7H-pyrrolo[2,3-d]pyrimidine-6-carboxylic acid dimethylamide]	21	216	160		IC50 [3]: > 15000 nM
CN(C)C(=O)c1cc2cnc(Nc3ccc(N4C[C@@H]5CNC[C@@H]5CC4=O)cn3)nc2n1C1CCCC1 (stereo in doubt) [Example 92, 7-cyclopentyl-N,N-dimethyl-2-(5-(cis-6-oxotetrahydro-1H-pyrrolo[3,4-c]pyridin-5(6H,7H,7aH)-yl)pyridin-2-ylamino)-7H-pyrrolo[2,3-d]pyrimidine-6-carboxamide]	5 to 7			25100	IC50 ([2]; Homo sapiens, JeKo-1, read-out: Cellular ppRb inhibition IC50): 5 to 20 nM; IC50 ([2]; Homo sapiens, JeKo-1, read-out: Normalized cellular ppRb inhibition IC50): 19 to 38 nM

Reference: patent US8957074B2 (Novartis AG, priority 2010, dated 2015)
